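The concentration for 50% growth inhibition is given as GI50. At the TGI there is no net growth.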
Tests used:
Test in all cases: NCI-60 cell line screen, 384-well format
[1] = system: 786-0 renal
[2] = system: A498 renal
[3] = system: A549 NSCLC
[4] = system: ACHN renal
[5] = system: BT-549 breast
[6] = system: CAKI-1 renal
[7] = system: CCRF-CEM leukemia
[8] = system: DU-145 prostate
[9] = system: EKVX NSCLC
[10] = system: HCT-116 colon
[11] = system: HCT-15 colon
[12] = system: HL-60(TB) leukemia
[13] = system: HOP-62 NSCLC
[14] = system: HOP-92 NSCLC
[15] = system: HS 578T breast
[16] = system: HT29 colon
[17] = system: IGROV1 ovarian
[18] = system: K-562 leukemia
[19] = system: KM12 colon
[20] = system: LOX IMVI melanoma
[21] = system: M14 melanoma
[22] = system: MALME-3M melanoma
[23] = system: MCF7 breast
[24] = system: MDA-MB-231 breast
[25] = system: MDA-MB-435 melanoma
[26] = system: MDA-MB-468 breast
[27] = system: MOLT-4 leukemia
[28] = system: NCI-H226 lung
[29] = system: NCI-H23 lung
[30] = system: NCI-H322M lung
[31] = system: NCI-H522 lung
[32] = system: NCI/ADR-RES ovarian
[33] = system: OVCAR-3 ovarian
[34] = system: OVCAR-4 ovarian
[35] = system: OVCAR-5 ovarian
[36] = system: OVCAR-8 ovarian
[37] = system: PC-3 prostate
[38] = system: RPMI-8226 leukemia
[39] = system: RXF 393 renal
[40] = system: SF-268 CNS
[41] = system: SF-295 CNS
[42] = system: SF-539 CNS
[43] = system: SK-MEL-2 melanoma
[44] = system: SK-MEL-28 melanoma
[45] = system: SK-OV-3 ovarian
[46] = system: SN12C renal
[47] = system: SNB-19 CNS
[48] = system: SNB-75 CNS
[49] = system: SW-620 colon
[50] = system: T-47D breast
[51] = system: TK-10 renal
[52] = system: U251 glioblastoma
[53] = system: UACC-257 melanoma
[54] = system: UACC-62 melanoma
[55] = system: UO-31 renal

CC(C)Cn1cnc2c(N)nc3ccccc3c21
GI50 [1]: > 100 µM | TGI [1]: > 100 µM | GI50 [2]: > 100 µM | TGI [2]: > 100 µM | GI50 [3]: > 100 µM | TGI [3]: > 100 µM | GI50 [4]: > 100 µM | TGI [4]: > 100 µM | GI50 [5]: > 100 µM | TGI [5]: > 100 µM | GI50 [6]: > 100 µM | TGI [6]: > 100 µM | GI50 [7]: > 100 µM | TGI [7]: > 100 µM | GI50 [8]: > 100 µM | TGI [8]: > 100 µM | GI50 [9]: 67.9 µM | TGI [9]: > 100 µM | GI50 [10]: > 100 µM | TGI [10]: > 100 µM | GI50 [11]: > 100 µM | TGI [11]: > 100 µM | GI50 [12]: > 100 µM | TGI [12]: > 100 µM | GI50 [13]: > 100 µM | TGI [13]: > 100 µM | GI50 [14]: > 100 µM | TGI [14]: > 100 µM | GI50 [15]: > 100 µM | TGI [15]: > 100 µM | GI50 [16]: > 100 µM | TGI [16]: > 100 µM | GI50 [17]: > 100 µM | TGI [17]: > 100 µM | GI50 [18]: > 100 µM | TGI [18]: > 100 µM | GI50 [19]: > 100 µM | TGI [19]: > 100 µM | GI50 [20]: > 100 µM | TGI [20]: > 100 µM | GI50 [21]: > 100 µM | TGI [21]: > 100 µM | GI50 [22]: > 100 µM | TGI [22]: > 100 µM | GI50 [23]: > 100 µM | TGI [23]: > 100 µM | GI50 [24]: > 100 µM | TGI [24]: > 100 µM | GI50 [25]: > 100 µM | TGI [25]: > 100 µM | GI50 [26]: > 100 µM | TGI [26]: > 100 µM | GI50 [27]: > 100 µM | TGI [27]: > 100 µM | GI50 [28]: > 100 µM | TGI [28]: > 100 µM | GI50 [29]: > 100 µM | TGI [29]: > 100 µM | GI50 [30]: > 100 µM | TGI [30]: > 100 µM | GI50 [31]: > 100 µM | TGI [31]: > 100 µM | GI50 [32]: > 100 µM | TGI [32]: > 100 µM | GI50 [33]: > 100 µM | TGI [33]: > 100 µM | GI50 [34]: > 100 µM | TGI [34]: > 100 µM | GI50 [35]: > 100 µM | TGI [35]: > 100 µM | GI50 [36]: > 100 µM | TGI [36]: > 100 µM | GI50 [37]: > 100 µM | TGI [37]: > 100 µM | GI50 [38]: > 100 µM | TGI [38]: > 100 µM | GI50 [39]: > 100 µM | TGI [39]: > 100 µM | GI50 [40]: > 100 µM | TGI [40]: > 100 µM | GI50 [41]: > 100 µM | TGI [41]: > 100 µM | GI50 [42]: > 100 µM | TGI [42]: > 100 µM | GI50 [43]: > 100 µM | TGI [43]: > 100 µM | GI50 [44]: > 100 µM | TGI [44]: > 100 µM | GI50 [45]: > 100 µM | TGI [45]: > 100 µM | GI50 [46]: > 100 µM | TGI [46]: > 100 µM | GI50 [47]: > 100 µM | TGI [47]: > 100 µM | GI50 [48]: > 100 µM | TGI [48]: > 100 µM | GI50 [49]: > 100 µM | TGI [49]: > 100 µM | GI50 [50]: > 100 µM | TGI [50]: > 100 µM | GI50 [51]: > 100 µM | TGI [51]: > 100 µM | GI50 [52]: > 100 µM | TGI [52]: > 100 µM | GI50 [53]: > 100 µM | TGI [53]: > 100 µM | GI50 [54]: > 100 µM | TGI [54]: > 100 µM | GI50 [55]: > 100 µM | TGI [55]: > 100 µM

Reference: PubChem BioAssay (NCI)
